# Columns and labels:
# [1] = target: T1, glutathione-S-transferase (GST) tagged LXRbeta LBD (ligand binding domain) (Homo sapiens, UniProt P55055); test: LanthaScreen TR-FRET Liver X Receptor Coactivator Assay, co-activator recruitment to LXRbeta LBD; format: biochemical; settings: for Emax: read-out: LXR beta Activity @ max dose (%); for EC50: potency (Inflection Point, IP), co-activator recruitment to LXRbeta LBD, in relation to T0901317, read-out: LXR beta IP
# T1 construct: purchased Invitrogen pv4658.pps
# T1 sequence (P55055 222-460 limits assumed): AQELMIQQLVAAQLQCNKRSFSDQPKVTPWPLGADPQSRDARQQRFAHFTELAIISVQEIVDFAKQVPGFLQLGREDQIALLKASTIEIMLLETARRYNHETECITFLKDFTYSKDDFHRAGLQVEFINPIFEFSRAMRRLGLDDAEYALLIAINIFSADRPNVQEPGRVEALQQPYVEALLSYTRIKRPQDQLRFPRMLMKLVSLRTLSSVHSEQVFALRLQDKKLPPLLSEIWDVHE
# Summary of the method: (§1)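 Efficacy (Emax) and inflection-point potency were scaled to reference agonist T0901317, acting on both LXR subtypes. Ligand-driven coactivator peptide recruitment was detected by TR-FRET after room-temperature incubation with terbium anti-GST antibody.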
# [2] = target: T2, glutathione-S-transferase (GST) tagged LXRalpha LBD (ligand binding domain) (Homo sapiens, UniProt Q13133); test: LanthaScreen TR-FRET Liver X Receptor Coactivator Assay, co-activator recruitment to LXRalpha LBD; format: biochemical; settings: for Emax: read-out: LXR alpha Activity @ max dose (%); for LXR alpha IP (nM) / EC50: potency (Inflection Point, IP), co-activator recruitment to LXRalpha LBD, in relation to T0901317; for EC50: read-out: LXR alpha IP
# T2 construct: purchased Invitrogen pv4655
# T2 sequence (Q13133 209-447 limits assumed): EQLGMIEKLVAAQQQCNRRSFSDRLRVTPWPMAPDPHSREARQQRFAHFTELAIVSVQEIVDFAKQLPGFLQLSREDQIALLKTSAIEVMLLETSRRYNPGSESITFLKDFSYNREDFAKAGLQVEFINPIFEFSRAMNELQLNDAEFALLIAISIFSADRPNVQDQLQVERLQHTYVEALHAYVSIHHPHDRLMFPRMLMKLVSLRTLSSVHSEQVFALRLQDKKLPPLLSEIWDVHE
# Summary of the method: as §1
# [3] = efficacy at max dose, in relation to reference dual agonist T0901317
"Emax [1, 3]",EC50 [1],"Emax [2, 3]",LXR alpha IP (nM) [2],EC50 [2],"LXR beta Activity @ max dose (%) [1, 3]","LXR alpha Activity @ max dose (%) [2, 3]",SMILES
71%,20 nM,0%,NO IP,,,,"CCOc1cccc([C@@](O)(C(=O)N2CC(CC3CCN(c4ccc(C(=O)N(C)C)c(Cl)c4)CC3)C2)C(F)(F)F)c1 [Example 2-62, 2-chloro-4-[4-({1-[(2R)-2-(3-ethoxy-phenyl)-3,3,3-trifluoro-2-hydroxy-propanoyl]azetidin-3-yl}methyl)piperidin-1-yl]-N,N-dimethyl-benzamide]"
29%,236 nM,7%,NO IP,,,,"CN(C)C(=O)c1ccc(N2CCC(CC3CCN(C(=O)C(F)(F)c4ccc(F)cc4)CC3)CC2)nc1Cl [Example 7-85, 2-chloro-6-[4-({1-[difluoro(4-fluorophenyl)acetyl]piperidin-4-yl}methyl)piperidin-1-yl]-N,N-dimethylpyridine-3-carboxamide]"
41%,5 nM,0%,NO IP,,,,"CN(C)C(=O)c1ccc(N2CCC(CC3CCN(C(=O)[C@](O)(c4cccc(OC5CC5)c4)C(F)(F)F)CC3)CC2)nc1Cl [Example 7-106, 2-chloro-6-{4-[(1-{(2R)-2-[3-(cyclopropyloxy)phenyl]-3,3,3-trifluoro-2-hydroxypropanoyl}piperidin-4-yl)methyl]piperidin-1-yl}-N,N-dimethylpyridine-3-carboxamide]"
60%,5 nM,17%,,251 nM,,,"CN(C)C(=O)c1ccc(N2CCC(CC3CCN(C(=O)[C@](O)(c4cccc(OC(F)F)c4)C(F)(F)F)CC3)CC2)nc1Cl [Example 7-115, 2-chloro-6-{4-[(1-{(2R)-2-[3-(difluoromethoxy)phenyl]-3,3,3-trifluoro-2-hydroxypropanoyl}piperidin-4-yl)methyl]piperidin-1-yl}-N,N-dimethylpyridine-3-carboxamide]"
63%,5 nM,30%,,50 nM,,,"O=C(c1ccc(N2CCC(CC3CCN(C(=O)[C@](O)(c4ccccc4)C(F)(F)F)CC3)CC2)cc1Cl)N1CCC[C@H]1CO [Example 4-3, (2R)-3-(4-{[1-(3-chloro-4-{[(2S)-2-(hydroxy-methyl)pyrrolidin-1-yl]carbonyl}phenyl)piperidin-4-yl]methyl}piperidin-1-yl)-1,1,1-trifluoro-3-oxo-2-phenylpropan-2-ol]"
69%,5 nM,14%,,120 nM,,,"COc1cccc([C@@](O)(C(=O)N2CCC(CC3CCN(c4ccc(C(=O)N(C)C)c(Cl)n4)CC3)CC2)C(F)(F)F)c1 [Example 7-52, 2-chloro-N,N-dimethyl-6-[4-({1-[(2R)-3,3,3-trifluoro-2-hydroxy-2-(3-methoxyphenyl)propanoyl]piperidin-4-yl}methyl)piperidin-1-yl]pyridine-3-carboxamide]"
77%,223 nM,35%,,5370 nM,,,"CC(C)(C(=O)N1CCC(CC2CCN(c3cccc(S(C)(=O)=O)c3)CC2)CC1)c1ccccc1 [Example 2-73, 1-(2-methyl-2-phenylpropanoyl)-4-({1-[3-(methylsulfonyl)phenyl]piperidin-4-yl}methyl)piperidine]"
101%,47 nM,10%,NO IP,,,,"COc1cc(Cl)cc([C@](O)(C(=O)N2CCC(CC3CCN(c4ccc(C(=O)N(C)C)c(Cl)n4)CC3)CC2)C(F)(F)F)c1 [Example 7-108, 2-chloro-6-[4-({1-[(2S)-2-(3-chloro-5-methoxyphenyl)-3,3,3-trifluoro-2-hydroxypropanoyl]piperidin-4-yl}methyl)piperidin-1-yl]-N,N-dimethylpyridine-3-carboxamide]"
92%,184 nM,18%,,4240 nM,,,"CNC(=O)c1ccc(N2CCC(OC3CCN(C(=O)C(O)(c4cccc(OC)c4)C(F)(F)F)CC3)CC2)cc1Cl (stereo not shown) [Example 7-32, 2-chloro-N-methyl-4-[4-({1-[3,3,3-trifluoro-2-hydroxy-2-(3-methoxyphenyl)propanoyl]piperidin-4-yl}oxy)piperidin-1-yl]benzamide]"
54%,20 nM,14%,NO IP,,,,"Cc1cc(N2CCC(CC3CCN(C(=O)[C@](O)(c4cccc(C(C)C)c4)C(F)(F)F)CC3)CC2)ccc1C(=O)N(C)C [Example 2-149, N,N,2-trimethyl-4-{4-[(1-{(2R)-3,3,3-trifluoro-2-hydroxy-2-[3-(1-methyl-ethyl)phenyl]propanoyl}piperidin-4-yl)methyl]piperidin-1-yl}benzamide]"
80%,19 nM,35%,,895 nM,,,"Cc1nc(N2CCC(CC3CCN(C(=O)[C@](O)(c4ccccc4)C(F)(F)F)CC3)CC2)ccc1C(=O)N(C)C [Example 7-1, (R)—N,N,2-trimethyl-6-(4-((1-(3,3,3-trifluoro-2-hydroxy-2-phenylpropanoyl)piperidin-4-yl)methyl)piperidin-1-yl)nicotinamide]"
31%,409 nM,3%,NO IP,,,,"COc1cccc(C(=O)C(=O)N2CCC(CC3CCN(c4ccc(C(=O)N(C)C)c(Cl)c4)CC3)CC2)c1 [Example 2-104, 2-chloro-4-[4-({1-[(3-methoxyphenyl) (oxo)acetyl]piperidin-4-yl}methyl)piperidin-1-yl]-N,N-dimethyl-benzamide]"
26%,3 nM,0%,NO IP,,,,"COc1cc(Cl)cc([C@@](O)(C(=O)N2CCC(CC3CCN(c4ccc(C(=O)N(C)C)c(Cl)n4)CC3)CC2)C(F)(F)F)c1 [Example 7-107, 2-chloro-6-[4-({1-[(2R)-2-(3-chloro-5-methoxyphenyl)-3,3,3-trifluoro-2-hydroxypropanoyl]piperidin-4-yl}methyl)piperidin-1-yl]-N,N-dimethylpyridine-3-carboxamide]"
,33 nM,,NO IP,,64%,10%,"CN(C)C(=O)c1ccc(N2CCC(CC3CCN(C(=O)[C@](O)(c4cccc(Cl)c4)C(F)(F)F)CC3)CC2)cc1 [Example 2-146, 4-[4-({1-[(2R)-2-(3-chloro-phenyl)-3,3,3-trifluoro-2-hydroxy-propanoyl]piperidin-4-yl}methyl)piperidin-1-yl]-N,N-dimethyl-benzamide]"
76%,13 nM,9%,NO IP,,,,"CNC(=O)c1ccc(N2CCC(CC3CCN(C(=O)[C@](O)(c4cc(Cl)cc(Cl)c4)C(F)(F)F)CC3)CC2)cc1Cl [Example 7-116, 2-chloro-4-[4-({1-[(2R)-2-(3,5-dichlorophenyl)-3,3,3-trifluoro-2-hydroxypropanoyl]piperidin-4-yl}methyl)piperidin-1-yl]-N-methylbenzamide]"
32%,4670 nM,36%,NO IP,,,,"CN(C)C(=O)c1cnc(N2CCC(CC3CCN(C(=O)[C@](O)(c4ccccc4)C(F)(F)F)CC3)CC2)cc1Cl [Example 7-2, 4-chloro-N,N-dimethyl-6-[4-({1-[(2R)-3,3,3-trifluoro-2-hydroxy-2-phenylpropanoyl]piperidin-4-yl}methyl)piperidin-1-yl] pyridine-3-carboxamide]"
15%,598 nM,0%,NO IP,,,,"CN(C)C(=O)c1ccc(N2CCC(CC3CCN(C(=O)C(O)(c4ccc(C(F)(F)F)cc4)C(F)(F)F)CC3)CC2)cc1Cl (stereo not shown) [Example 2-16, 2-chloro-N,N-dimethyl-4-{4-[(1-{3,3,3-trifluoro-2-hydroxy-2-[4-(trifluoromethyl)phenyl]propanoyl}piperidin-4-yl)methyl]piperidin-1-yl} benzamide]"
20%,32 nM,1%,NO IP,,,,"CCc1cccc([C@@](O)(C(=O)N2CCC(C)(CC3CCN(c4ccc(C(=O)N(C)C)c(C)c4)CC3)CC2)C(F)(F)F)c1 [Example 2-78, 4-[4-({1-[(2R)-2-(3-ethylphenyl)-3,3,3-trifluoro-2-hydroxy-propanoyl]-4-methylpiperidin-4-yl}methyl)piperidin-1-yl]-N,N,2-trimethyl-benzamide]"
75%,34 nM,8%,NO IP,,,,"CCOc1cccc([C@@](O)(C(=O)N2CC(CC3CCN(c4ccc(C(=O)N(C)C)c(Cl)n4)CC3)C2)C(F)(F)F)c1 [Example 7-44, 2-chloro-6-[4-({1-[(2R)-2-(3-ethoxyphenyl)-3,3,3-trifluoro-2-hydroxypropanoyl]azetidin-3-yl}methyl)piperidin-1-yl]-N,N-dimethylpyridine-3-carboxamide]"

# — patent US10752587B2, “Homobispiperidinyl derivatives as liver X receptor beta agonists, compositions and their use” (Merck Sharp & Dohme Corp., priority 2015, dated 2020)
